In US12465594B2 (Brown University, priority 2018, dated 2025):

Tests used:
[1] = test system: NMDAR EPSCs in VTA dopamine neurons; assay: Electrophysiology: CRF potentiation of NMDAR EPSCs in VTA slices; format: cell-based, mouse; conditions: CRF 1 μM, VTA-DA neurons, acute brain slices
From the text: Male and female mice (n=44; 6-10 weeks) were anesthetized with Euthasol (Butler-Schein). Brains were rapidly removed and placed in ice-cold NMDG-based artificial Cerebrospinal Fluid (aCSF) cutting solution containing (in mM): 92 NMDG, 20 HEPES, 25 glucose, 30 NaHCO3, 2.5 KCl, 1.2 NaPO4 saturated with 95% O2/5% CO2 with an osmolarity of 305-308 mOsm (Advanced Cell Diagnostics). The brain was cut in ice-cold NMDG solution to obtain horizontal VTA slices, 230 μm thick, using a Leica vibratome (Leica VT1200) and slices were incubated in warm NMDG solution (34° C.) for <5 minutes before being placed in a modified aCSF holding solution (in mM): 92 NaCl, 20 HEPES, 25 glucose, 30 NaHCO3, 2.5 KCl, 1.2 NaPO4 (305-308 mOsm). Slices were incubated at room temperature for at least 1 hour before recording.
Whole-cell patch clamp of the lateral VTA was performed under the guidance of IR-DIC optics on an Olympus BX5iWI microscope. Cells were patched with 1.8-3 MO resistance glass microelectrodes containing the following internal solution (in mM): 117 cesium methanesulfonate, 20 HEPES, 0.4 EGTA, 2.8 NaCl, 5 TEA-CI, 4 Mg-ATP, 0.4 Na-GTP, and 5 QX-314 (280-285 mOsm). Dopamine cells were identified by the following criteria: 1) large multipolar soma, 30-40 μm in diameter, 2) tonic firing of <4 Hz when cell attached, 3) large […] with negative voltage step (identified immediately following break in). […] Series resistance was monitored online. […]
For electrophysiology measures, excitatory post-synaptic currents (EPSCs) were normalized to 7 minute of averaged baseline responses, prior to drug application. […] Results are reported as M±SEM a in bar graphs comparing drug to vehicle and analyzed by a one-way ANOVA and post-hoc comparisons to vehicle were performed using a Bonferroni multiple comparisons correction measures (**p<0.01). […]
NMDAR excitatory postsynaptic currents (EPSCs) were recorded from VTA dopamine (DA) neurons in acute brain slices from male and female mice. […]

[2] = target: HEK293 cells expressing FLAG-CRFBP(10 kD)-HA-CRF2α (Homo sapiens, UniProt P24387+Q13324); conditions: 384-well format
Sequence of HEK293 cells expressing FLAG-CRFBP(10 kD)-HA-CRF2α (P24387+Q13324 fused): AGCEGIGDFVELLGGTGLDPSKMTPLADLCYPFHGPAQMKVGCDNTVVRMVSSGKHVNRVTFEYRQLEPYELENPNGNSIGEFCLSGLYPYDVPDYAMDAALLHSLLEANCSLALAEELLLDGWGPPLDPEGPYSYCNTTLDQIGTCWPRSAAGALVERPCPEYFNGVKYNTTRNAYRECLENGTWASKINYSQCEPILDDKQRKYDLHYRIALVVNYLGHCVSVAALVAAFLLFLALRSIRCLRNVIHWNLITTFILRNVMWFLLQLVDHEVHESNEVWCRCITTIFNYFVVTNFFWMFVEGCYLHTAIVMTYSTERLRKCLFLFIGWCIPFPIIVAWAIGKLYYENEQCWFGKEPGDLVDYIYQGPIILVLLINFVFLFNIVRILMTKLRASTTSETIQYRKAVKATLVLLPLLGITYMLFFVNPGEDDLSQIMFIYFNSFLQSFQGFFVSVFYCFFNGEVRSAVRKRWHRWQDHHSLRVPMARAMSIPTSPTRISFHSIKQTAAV

corticotropin releasing factor [CRF, reference compound]
Effect of CRF on NMDAR EPSCs [1]: potentiated NMDA receptor EPSCs | EC80, CRF-induced intracellular calcium release [2]: 1 µM
